In patent US10080804B2, “Conjugate with target-finding ligand and use thereof” (ethris GmbH, priority 2009, dated 2018):

Tests used:
human IP1 receptor = biological target: T1, human IP1 receptor (Homo sapiens, UniProt P43119); assay: Inhibition of FLUO-BSA-ILO receptor binding/uptake with CAY10449 on 16HBE14o-cells (FACS); type: cell-based; settings: 25 nM conjugate, increasing CAY10449 (15, 30, 150 μM) or excess of unconjugated ILO
T1 construct: The expression of IP1 receptor in human alveolar (A549) and bronchial (BEAS-2B, 16HBE14o-) epithelial cells was confirmed by Western blot analysis; endogenous in cells; host or cells: 16HBE14o- human bronchial epithelial cells
T1 sequence (P43119 whole entry): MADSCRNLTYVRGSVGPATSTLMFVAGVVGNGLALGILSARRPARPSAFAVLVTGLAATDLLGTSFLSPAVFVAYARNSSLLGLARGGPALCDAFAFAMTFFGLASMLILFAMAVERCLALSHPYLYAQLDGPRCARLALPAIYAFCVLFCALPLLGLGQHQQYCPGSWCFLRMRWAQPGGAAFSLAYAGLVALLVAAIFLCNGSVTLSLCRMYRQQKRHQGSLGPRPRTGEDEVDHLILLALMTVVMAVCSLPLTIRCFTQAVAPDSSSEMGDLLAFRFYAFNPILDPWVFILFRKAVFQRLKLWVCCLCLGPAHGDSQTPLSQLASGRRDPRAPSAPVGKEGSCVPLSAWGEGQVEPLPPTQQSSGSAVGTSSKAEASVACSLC
Experimental: 24-well plates were prepared as described above. CAY10449 was diluted in MEM to concentrations of 15 μM, 30 μM and 150 μM, and the mixtures were incubated at 37° C. for 15 min. […] The binding/uptake was measured using FACS.

[1] = physiological environment, i.e. in the blood; cited from earlier work
A549 cells = assay: FACS receptor binding/uptake of fluorescein-BSA conjugates; type: cell-based, human; settings: 0.5 μM conjugate, 4 h, 37° C.
Experimental: (§1) For the FACS measurement experiments, 100 000 cells/well were seeded in 24-well plates (TPP, Trasadingen, Switzerland) 24 hours before adding the conjugates. […] After the cells had been washed with PBS, the cells were removed from the wells by treatment with trypsin, and the FACS measurements were carried out using a Beckton-Dickinson FACS scan (San Jose, USA). For the confocal laser scanning microscopy, the experiments were carried out on slides with 4 chambers from BD Falcon Culture (BD Biosciences San Jose, USA) with 25 000 cells per chamber. The incubation of FLUO-BSA-ILO and FLUO-BSA was performed as described above. The cells were washed and fixed in 4% paraformaldehyde, and the nuclei were subsequently stained with 0.33 μM DAPI (4′,6-diamidino-2-phenylindole) and F-actin with Alexafluor® 568 Falloidin (Invitrogen GmbH, Karlsruhe, Germany) using standard protocols. The slides were covered with medium (Vectashield, Vector Laboratories Inc., Berlingame, USA), and images were taken with a confocal laser scanning microscope (Leica, Solms, Germany).

16HBE14o-cells [2] = assay: as above; type: cell-based, human; settings: 0.5 μM conjugate, 4 h, 37° C.
Experimental: as §1

BEAS-2B cells = assay: as above; type: cell-based, human; settings: 0.5 μM conjugate, 4 h, 37° C.
Experimental: as §1

H441 cells = assay: as above; type: cell-based, human; settings: 0.5 μM conjugate, 4 h, 37° C.
Experimental: as §1

16HBE14o-cells [3] = assay: Confocal laser scanning microscopy of surface binding and intracellular uptake; type: cell-based, human; settings: 0.5 μM conjugate
Experimental: as §1

Compound | effect of competitor on number of fluorescence-positive cells and MFI (human IP1 receptor) | half-life [1] | positive A549 cells (A549 cells) | positive 16HBE14o-cells (16HBE14o-cells [2]) | positive cells (BEAS-2B) (BEAS-2B cells) [%] | positive cells (H441) (H441 cells) [%] | cell surface binding and intracellular uptake (confocal microscopy) (16HBE14o-cells [3])
CC(C)Oc1ccc(Cc2ccc(NC3=NCCN3)cc2)cc1 [CAY10449] | significant dose-dependent reduction | – | – | – | – | – | –
CCCCC[C@H](O)/C=C/[C@@H]1[C@H]2C/C(=C/CCCC(=O)O)O[C@H]2C[C@H]1O [prostacyclin] | – | only a few minutes | – | – | – | – | –
FLUO-BSA: fluorescein-labeled bovine serum albumin, control without ligand | no activity | – | unspecific background binding | unspecific background binding | 13.7±1.2 | 9.1±1.9 | no uptake
